{"source": "patent US8999974B2", "about": "“Acyl piperazine derivatives as TTX-S blockers” (Raqualia Pharma Inc., priority 2010, dated 2015)", "biological_target": "T1, human NaV1.3 (Homo sapiens, UniProt Q9NY46)", "T1 construct": "expressed in transfected cells; host or cells: HEK293", "T1 sequence (Q9NY46 whole entry)": "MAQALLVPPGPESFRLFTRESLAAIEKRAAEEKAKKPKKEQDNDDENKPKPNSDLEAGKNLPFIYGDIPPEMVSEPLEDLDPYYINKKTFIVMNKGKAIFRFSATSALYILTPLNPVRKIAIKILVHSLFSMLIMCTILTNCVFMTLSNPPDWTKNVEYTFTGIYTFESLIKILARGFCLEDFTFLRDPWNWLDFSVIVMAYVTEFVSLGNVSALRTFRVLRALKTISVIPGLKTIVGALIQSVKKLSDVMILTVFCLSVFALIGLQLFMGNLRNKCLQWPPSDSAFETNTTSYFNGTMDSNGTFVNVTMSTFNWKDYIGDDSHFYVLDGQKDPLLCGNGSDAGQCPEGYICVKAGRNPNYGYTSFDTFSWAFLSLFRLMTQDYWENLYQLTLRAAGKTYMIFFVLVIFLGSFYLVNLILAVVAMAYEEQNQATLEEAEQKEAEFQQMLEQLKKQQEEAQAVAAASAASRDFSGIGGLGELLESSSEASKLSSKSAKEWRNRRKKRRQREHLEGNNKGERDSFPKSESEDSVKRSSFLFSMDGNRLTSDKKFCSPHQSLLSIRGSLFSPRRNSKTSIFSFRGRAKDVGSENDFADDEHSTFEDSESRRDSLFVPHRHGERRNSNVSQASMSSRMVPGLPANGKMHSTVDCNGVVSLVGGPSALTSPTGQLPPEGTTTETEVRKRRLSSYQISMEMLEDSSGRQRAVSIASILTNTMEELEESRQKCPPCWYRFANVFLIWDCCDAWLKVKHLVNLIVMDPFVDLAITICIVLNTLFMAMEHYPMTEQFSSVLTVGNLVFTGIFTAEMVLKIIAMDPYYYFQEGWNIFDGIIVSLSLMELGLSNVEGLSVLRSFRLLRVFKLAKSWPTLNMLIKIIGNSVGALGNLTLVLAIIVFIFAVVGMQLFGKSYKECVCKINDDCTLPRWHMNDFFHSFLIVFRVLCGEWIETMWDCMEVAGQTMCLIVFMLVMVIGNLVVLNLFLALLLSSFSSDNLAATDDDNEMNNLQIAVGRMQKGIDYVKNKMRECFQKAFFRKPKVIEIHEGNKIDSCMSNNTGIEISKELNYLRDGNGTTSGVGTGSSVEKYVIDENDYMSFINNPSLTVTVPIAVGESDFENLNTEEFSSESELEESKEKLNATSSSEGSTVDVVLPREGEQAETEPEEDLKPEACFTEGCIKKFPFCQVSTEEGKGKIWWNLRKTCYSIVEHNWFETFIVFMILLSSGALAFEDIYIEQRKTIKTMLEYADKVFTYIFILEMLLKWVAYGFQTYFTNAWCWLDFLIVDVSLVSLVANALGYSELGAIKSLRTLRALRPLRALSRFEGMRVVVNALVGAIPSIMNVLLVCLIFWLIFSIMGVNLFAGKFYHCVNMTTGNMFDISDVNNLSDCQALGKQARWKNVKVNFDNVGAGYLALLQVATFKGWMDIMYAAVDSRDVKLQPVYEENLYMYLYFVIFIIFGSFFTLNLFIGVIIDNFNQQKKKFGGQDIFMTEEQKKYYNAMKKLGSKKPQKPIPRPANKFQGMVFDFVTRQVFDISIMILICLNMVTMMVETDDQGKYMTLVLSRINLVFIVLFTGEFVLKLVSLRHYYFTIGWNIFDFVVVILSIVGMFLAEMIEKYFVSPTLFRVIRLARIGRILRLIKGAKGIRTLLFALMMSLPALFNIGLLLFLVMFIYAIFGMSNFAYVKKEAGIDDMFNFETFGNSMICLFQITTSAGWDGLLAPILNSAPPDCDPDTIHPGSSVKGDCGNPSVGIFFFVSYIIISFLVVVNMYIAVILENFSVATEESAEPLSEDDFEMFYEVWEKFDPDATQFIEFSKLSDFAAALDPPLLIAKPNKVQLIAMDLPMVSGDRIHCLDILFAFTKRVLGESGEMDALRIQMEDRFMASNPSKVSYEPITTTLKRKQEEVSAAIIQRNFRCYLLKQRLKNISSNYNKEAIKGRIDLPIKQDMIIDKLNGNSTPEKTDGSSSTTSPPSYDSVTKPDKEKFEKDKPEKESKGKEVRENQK", "assay": "FRET assay (EFS, FDSS) on HEK293 cells expressing human NaV1.3 channels", "assay_type": "cell-based", "details": "FRET assay, HEK293 cells expressing human NaV1.3; read-out: IC50 against Nav1.3", "protocol": "This screen was used to determine the effects of compounds on human NaV1.3, human Nav1.7, and human Nav1.5 channels, utilising electrical field stimulation (EFS) system in 96-well plate format on FDSS (Hamamatsu Photonics) platform. The change of membrane potential was monitored with FRET dye pair, oxonol (DiSBAC2(3)) and coumarin (CC2-DMPE).\nEach HEK293 cells expressing human NaV1.3 channels and HEK293 cells expressing human NaV1.5 channels were grown in T225 flasks, in a 5% CO2 humidified incubator to about 80% confluence. Media composition consisted of Dulbecco's Modified Eagle Medium (high glucose), 10% FCS, 100 units/ml Penicillin, 100 microgram/ml Streptomycin and 500 microgram/ml Geneticine.\nProtocol: • Seeded each cell lines (1×10^5 cells/well) into poly-D-lysine coated 96-well plates prior to experimentation. • Incubated at 37° C. in 5% CO2 for 24 hours. • Washed each well with assay buffer (140 mM NaCl, 4.5 mM KCl, 10 mM D-Glucose, 2 mM CaCl2, 1 mM MgCl2, 10 mM HEPES, pH 7.4 adjusted with NaOH) twice. • Added 1st loading solution containing 10 microM CC2-DMPE and 0.06% Pluronic F-127 in assay buffer. • Incubated the plate at room temperature in dark for 1 hour. • Removed 1st loading solution and added 2nd loading solution containing 15 microM DiSBAC2(3), 0.555 mM VABSC-1 and 0.004% Pluronic F-127 in assay buffer. • Placed the plate under the dark at room temperature for 25 minutes. • Added compound solutions into the assay plate. • Set the assay plate in FDSS and placed an EFS device on the plate. • Measured EFS-induced fluorescent response by FDSS.\nThe data were analyzed and reported as normalized ratios of intensities measured at […]. The process of calculating these ratios was performed as follows:\n[formula] This analysis was performed using a computerized specific program designed for FDSS generated data. Fluorescence ratio values were plotted using XLfit to determine an IC50 value for each compound."}
{"smiles": "CC(C)COc1cc(N2CCN(C(=O)Cc3ccc(F)cc3)CC2)ncn1", "note": "[Example 119, 2-(4-fluorophenyl)-1-(4-(6-isobutoxypyrimidin-4-yl)piperazin-1-yl)ethanone]", "values": [{"measurement": "IC50", "result": "< 3", "unit": "µM"}]}
{"smiles": "CC(C)COc1cc(N2CCN(C(=O)CS(=O)(=O)c3ccc(Cl)cc3)CC2)ncn1", "note": "[Example 121, 2-((4-chlorophenyl)sulfonyl)-1-(4-(6-isobutoxypyrimidin-4-yl)piperazin-1-yl)ethanone]", "values": [{"measurement": "IC50", "result": "< 3", "unit": "µM"}]}
{"smiles": "CC(C)COc1cc(N2CCN(C(=O)COc3ccc4cccnc4c3)CC2)ncn1", "note": "[Example 127, 1-(4-(6-isobutoxypyrimidin-4-yl)piperazin-1-yl)-2-(quinolin-7-yloxy)ethanone]", "values": [{"measurement": "IC50", "result": "< 3", "unit": "µM"}]}
{"smiles": "CC(C)COc1cc(N2CCN(C(=O)COc3cccc4ccncc34)CC2)ncn1", "note": "[Example 128, 1-(4-(6-isobutoxypyrimidin-4-yl)piperazin-1-yl)-2-(isoquinolin-8-yloxy)ethanone]", "values": [{"measurement": "IC50", "result": "< 3", "unit": "µM"}]}
{"smiles": "CC(C)COc1cc(N2CCN(C(=O)c3cc(-c4ccccc4)nn3C)CC2)ncn1", "note": "[Example 134, (4-(6-isobutoxpyrimidin-4-yl)piperazin-1-yl)(1-methyl-3-phenyl-1H-pyrazol-5-yl)methanone]", "values": [{"measurement": "IC50", "result": "< 3", "unit": "µM"}]}
{"smiles": "Cc1c(C(=O)N2CCN(c3cc(OCC(C)C)ncn3)CC2)cnn1-c1ccccc1", "note": "[Example 135]", "values": [{"measurement": "IC50", "result": "< 3", "unit": "µM"}]}
{"smiles": "Cc1c(C(=O)N2CCN(c3cc(OCC(C)C)ncn3)CC2)nnn1-c1ccccc1", "note": "[Example 136, (4-(6-isobutoxpyrimidin-4-yl)piperazin-1-yl)(5-methyl-1-phenyl-1H-1,2,3-triazol-4-yl)methanone]", "values": [{"measurement": "IC50", "result": "< 3", "unit": "µM"}]}
{"smiles": "O=C(CCOc1ccc(F)cc1)N1CCN(c2cc(OC3CCC3)ncn2)CC1", "note": "[Example 140, 1-(4-(6-cylcobutoxypyrimidin-4-yl)piperazin-1-yl)-3-(4-fluorophenoxy)propan-1-one]", "values": [{"measurement": "IC50", "result": "< 3", "unit": "µM"}]}
{"smiles": "CC(C)COc1cc(N2CCN(C(=O)COc3cncc(Cl)c3)CC2)ncn1", "note": "[Example 144, 2-((5-chloropyridin-3-yl)oxy)-1-(4-(6-isobutoxypyrimidin-4-yl)piperazin-1-yl)ethanone]", "values": [{"measurement": "IC50", "result": "< 3", "unit": "µM"}]}
{"smiles": "Cc1c(C(=O)N2CCN(c3cc(OCC(F)(F)F)ncn3)CC2)cnn1-c1ccccc1", "note": "[Example 148, (5-methyl-1-phenyl-1H-pyrazol-4-yl)(4-(6-(2,2,2-trifluoroethoxy)pyrimidin-4-yl)piperazin-1-yl)methanone]", "values": [{"measurement": "IC50", "result": "< 3", "unit": "µM"}]}
{"smiles": "CC(C)COc1cc(N2CCN(C(=O)[C@@H](C)Oc3ccc(F)cc3)CC2)ncn1", "note": "[Example 152, (R)-2-(4-fluorophenoxy)-1-(4-(6-isobutoxypyrimidin-4-yl)piperazin-1-yl)propan-1-one]", "values": [{"measurement": "IC50", "result": "< 3", "unit": "µM"}]}
{"smiles": "O=C(COc1cccc(F)c1)N1CCN(c2cc(OCC(F)(F)F)ncn2)CC1", "note": "[Example 155, 2-(3-fluorophenoxy)-1-(4-(6-(2,2,2-trifluoroethoxy)pyrimidin-4-yl)piperazin-1-yl)ethanone]", "values": [{"measurement": "IC50", "result": "< 3", "unit": "µM"}]}
{"smiles": "O=C(CN1CCc2ccccc2C1=O)N1CCN(c2cc(OCC(F)(F)F)ncn2)CC1", "note": "[Example 157, 2-(2-oxo-2-(4-(6-(2,2,2-trifluoroethoxy)pyrimidin-4-yl)piperazin-1-yl)ethyl)-3,4-dihydroisoquinolin-1(2H)-one]", "values": [{"measurement": "IC50", "result": "< 3", "unit": "µM"}]}
{"smiles": "CC(C)Oc1cc(N2CCN(C(=O)c3cc(-c4ccccc4)nn3C)CC2)ncn1", "note": "[Example 164, (4-(6-isopropoxypyrimidin-4-yl)piperazin-1-yl)(1-methyl-3-phenyl-1H-pyrazol-5-yl)methanone]", "values": [{"measurement": "IC50", "result": "< 3", "unit": "µM"}]}
{"smiles": "CC(C)COc1cc(N2CCN(C(=O)c3cnn(Cc4ccccc4)c3)CC2)ncn1", "note": "[Example 171, (1-benzyl-1H-pyrazol-4-yl)(4-(6-isobutoxypyrimidin-4-yl)piperazin-1-yl)methanone]", "values": [{"measurement": "IC50", "result": "< 3", "unit": "µM"}]}
{"smiles": "Cc1nn(-c2ccccc2)nc1C(=O)N1CCN(c2cc(OCC(C)C)ncn2)CC1", "note": "[Example 182, (4-(6-isobutoxypyrimidin-4-yl)piperazin-1-yl)(5-methyl-2-phenyl-2H-1,2,3-triazol-4-yl)methanone]", "values": [{"measurement": "IC50", "result": "< 3", "unit": "µM"}]}
{"smiles": "COc1ccccc1-n1cc(C(=O)N2CCN(c3cc(OCC(C)C)ncn3)CC2)cn1", "note": "[Example 183, (4-(6-isobutoxypyrimidin-4-yl)piperazin-1-yl)(1-(2-methoxyphenyl)-1H-pyrazol-4-yl)methanone]", "values": [{"measurement": "IC50", "result": "< 3", "unit": "µM"}]}
{"smiles": "CC(C)COc1cc(N2CCN(C(=O)c3cnn(-c4ccccc4)c3N)CC2)ncn1", "note": "[Example 184, (5-amino-1-phenyl-1H-pyrazol-4-yl)(4-(6-isobutoxypyrimidin-4-yl)piperazin-1-yl)methanone]", "values": [{"measurement": "IC50", "result": "< 3", "unit": "µM"}]}
{"smiles": "CC(C)COc1cc(N2CCN(C(=O)c3cc(-c4ccccc4)ncn3)CC2)ncn1", "note": "[Example 185, (4-(6-isobutoxypyrimidin-4-yl)piperazin-1-yl)(6-phenylpyrimidin-4-yl)methanone]", "values": [{"measurement": "IC50", "result": "< 3", "unit": "µM"}]}
{"smiles": "CC(C)COc1cc(N2CCN(C(=O)c3cc(-c4cccnc4)nn3C)CC2)ncn1", "note": "[Example 189, (4-(6-isobutoxypyrimidin-4-yl)piperazin-1-yl)(1-methyl-3-(pyridin-3-yl)-1H-pyrazol-5-yl)methanone]", "values": [{"measurement": "IC50", "result": "< 3", "unit": "µM"}]}
{"smiles": "CC(C)COc1cc(N2CCN(C(=O)c3csc(-c4cccnc4)n3)CC2)ncn1", "note": "[Example 190, (4-(6-isobutoxypyrimidin-4-yl)piperazin-1-yl)(2-(pyridin-3-yl)thiazol-4-yl)methanone]", "values": [{"measurement": "IC50", "result": "< 3", "unit": "µM"}]}
{"smiles": "CC(C)COc1cc(N2CCN(C(=O)c3csc(-c4ccccn4)n3)CC2)ncn1", "note": "[Example 191, (4-(6-isobutoxypyrimidin-4-yl)piperazin-1-yl)(2-(pyridin-2-yl)thiazol-4-yl)methanone]", "values": [{"measurement": "IC50", "result": "< 3", "unit": "µM"}]}
{"smiles": "CC(C)Oc1cc(N2CCN(C(=O)c3csc(-c4ccccn4)n3)CC2)ncn1", "note": "[Example 193, (4-(6-isopropoxypyrimidin-4-yl)piperazin-1-yl)(2-(pyridin-2-yl)thiazol-4-yl)methanone]", "values": [{"measurement": "IC50", "result": "< 3", "unit": "µM"}]}
{"smiles": "Cc1c(C(=O)N2CCN(c3cc(OCC(C)C)ncn3)CC2)nnn1-c1ccc(F)cc1", "note": "[Example 202, (1-(4-fluorophenyl)-5-methyl-1H-1,2,3-triazol-4-yl)(4-(6-isobutoxypyrimidin-4-yl)piperazin-1-yl)methanone]", "values": [{"measurement": "IC50", "result": "< 3", "unit": "µM"}]}
{"smiles": "Cc1c(C(=O)N2CCN(c3cc(OC(C)C)ncn3)CC2)nnn1-c1ccc(F)cc1", "note": "[Example 203, (1-(4-fluorophenyl)-5-methyl-1H-1,2,3-triazol-4-yl)(4-(6-isopropoxypyrimidin-4-yl)piperazin-1-yl)methanone]", "values": [{"measurement": "IC50", "result": "< 3", "unit": "µM"}]}
{"smiles": "Cc1c(C(=O)N2CCN(c3cc(OC4CCC4)ncn3)CC2)nnn1-c1ccc(F)cc1", "note": "[Example 204, (4-(6-cyclobutoxypyrimidin-4-yl)piperazin-1-yl)(1-(4-fluorophenyl)-5-methyl-1H-1,2,3-triazol-4-yl)methanone]", "values": [{"measurement": "IC50", "result": "< 3", "unit": "µM"}]}
{"smiles": "Cc1c(C(=O)N2CCN(c3cc(OCC(F)(F)F)ncn3)CC2)nnn1-c1ccc(F)cc1", "note": "[Example 205, (1-(4-fluorophenyl)-5-methyl-1H-1,2,3-triazol-4-yl)(4-(6-(2,2,2-trifluoroethoxy)pyrimidin-4-yl)piperazin-1-yl)methanone]", "values": [{"measurement": "IC50", "result": "< 3", "unit": "µM"}]}
{"smiles": "CC(C)COc1cc(N2CCN(C(=O)c3cn(-c4ccccc4)nn3)CC2)ncn1", "note": "[Example 206, (4-(6-isobutoxypyrimidin-4-yl)piperazin-1-yl)(1-phenhyl-1H-1,2,3-triazol-4-yl)methanone]", "values": [{"measurement": "IC50", "result": "< 3", "unit": "µM"}]}
{"smiles": "CC(C)COc1cc(N2CCN(C(=O)c3nn(C)c4ccc(F)cc34)CC2)ncn1", "note": "[Example 209, (5-fluoro-1-methyl-1H-indazol-3-yl)(4-(6-isobutoxypyrimidin-4-yl)piperazin-1-yl)methanone]", "values": [{"measurement": "IC50", "result": "< 3", "unit": "µM"}]}
{"smiles": "CC(C)Oc1cc(N2CCN(C(=O)c3nn(C)c4ccc(F)cc34)CC2)ncn1", "note": "[Example 210, (5-fluoro-1-methyl-1H-indazol-3-yl)(4-(6-isopropoxypyrimidin-4-yl)piperazin-1-yl)methanone]", "values": [{"measurement": "IC50", "result": "< 3", "unit": "µM"}]}
{"smiles": "CC(C)COc1cc(N2CCN(C(=O)c3ccc(-n4cccn4)nc3)CC2)ncn1", "note": "[Example 214, (6-(1H-pyrazol-1-yl)pyridin-3-yl)(4-(6-isobutoxypyrimidin-4-yl)piperazin-1-yl)methanone]", "values": [{"measurement": "IC50", "result": "< 3", "unit": "µM"}]}
{"smiles": "CC(C)COc1cc(N2CCN(C(=O)c3cnn(-c4ccccc4)c3)CC2)ncn1", "note": "[Example 215, (4-(6-isobutoxypyrimidin-4-yl)piperazin-1-yl)(1-phenyl-1H-pyrazol-4-yl)methanone]", "values": [{"measurement": "IC50", "result": "< 3", "unit": "µM"}]}
{"smiles": "CCn1nc(C(F)(F)F)cc1C(=O)N1CCN(c2cc(OCC(C)C)ncn2)CC1", "note": "[Example 217, (1-ethyl-3-(trifluoromethyl)-1H-pyrazol-5-yl)(4-(6-isobutoxypyrimidin-4-yl)piperazin-1-yl)methanone]", "values": [{"measurement": "IC50", "result": "< 3", "unit": "µM"}]}
{"smiles": "Cc1c(C(=O)N2CCN(c3cc(OC4CCC4)ncn3)CC2)nnn1-c1ccccc1", "note": "[Example 219, (4-(6-cyclobutoxypyrimidin-4-yl)piperazin-1-yl)(5-methyl-1-phenyl-1H-1,2,3-triazol-4-yl)methanone]", "values": [{"measurement": "IC50", "result": "< 3", "unit": "µM"}]}
